Experimental data: patent US10093675B2, “6,8-disubstituted-9-(heterocyclyl)purines, compositions containing these derivatives and their use in cosmetic and medicinal applications” (USTAV EXPERIMENTALNI BOTANIKY AV CR, V.V.I., priority 2014, dated 2018)

Tests used:
[1] = tested on: human diploid fibroblasts (HDF cells; HDF25, HDF45, HDF80); test: Inhibition of human cell aging: senescent cells by beta-galactosidase staining; format: cell-based; settings: for SENESCENT CELLS (%) HDF25: human diploid fibroblasts passage 25, beta-galactosidase staining; for SENESCENT CELLS (%) HDF45: human diploid fibroblasts passage 45, beta-galactosidase staining; for SENESCENT CELLS (%) HDF80: human diploid fibroblasts passage 80, beta-galactosidase staining
Procedure: In this example, human diploid fibroblasts (HDF cells of various passage levels: passage 25—designated HDF25; passage 45—designated HDF45; passage 80—designated HDF80) were stained for beta-galactosidase activity. The medium used for the cell cultivation was removed the cells were washed twice in […], and fixed in 2-3 ml of fixing solution comprised of a 2% formaldehyde and 0.2% glutaraldehyde in PBS. The cells were incubated at room temperature for 5 minutes, and then washed twice with PBS. The cells were subsequently incubated at 37° C. […] In this experiment, senescent cells, but no other cells were stained blue due to the action of beta-galactosidase on the substrate.

[2] = tested on: excised wheat leaf tips (Triticum aestivum cv. Hereward); test: Senescence inhibition on winter wheat leaf segments (retention of chlorophyll); format: in vivo; settings: 10^−4 mol/L; 96 hours in the dark; activity of kinetin set at 100%
Procedure: (§1) Seeds of winter wheat, Triticum aestivum cv. Hereward, were washed under running water for 24 hours and then sown on vermiculite soaked with Knop's solution. They were placed in the grown chamber at 25° C. with a 16/8 hours light period at […]. After 7 days, the first leaf was fully developed and the second leaf had started to grow. A tip section of the first leaf, approximately 35 mm long, was removed from 5 seedlings and trimmed slightly to a combined weight of 100 mg. The basal ends of the five leaf tips were placed in the wells of a microtiter polystyrene plate containing […] of a cytokinin solution each. The entire plate was inserted into a plastic box lined with paper tissues soaked in distilled water to prevent leaf sections from drying out. After 96 hours incubation in the dark at 25° C., the leaves were removed and chlorophyll extracted by heating at 80 C for 10 min in 5 ml of 80% ethanol (v/v). The sample volume was then restored to 5 ml by the addition of 80% ethanol (v/v). The absorbance of the extract was recorded at 665 nm. In addition, chlorophyll extracts from fresh leaves and leaf tips incubated in deionized water were measured. From the obtained data, the concentration with highest activity was selected for each compound tested. Relative activity of the compound at this concentration was calculated (see Table 6 below). The activity obtained for 10^−4 M kinetin (Kin) was set as 100%. The values shown are means of five replicates and the whole experiment was repeated twice.
The compounds to be tested were dissolved in dimethylsulfoxide (DMSO) and the solution brought up to 10^−3 M with distilled water. […] As summarized in Table 6 below, the presence of C-8 substitutent was beneficial and led to increase of antisenescent properties.

[3] = tested on: detached leaves of Triticum aestivum cv. Hereward; test: Membrane lipid peroxidation (MDA, TBA method) in detached wheat leaves during dark senescence; format: in vivo; settings: four days in the dark, Control 18.9 (±2.2)
Procedure: A typical symptom associated with senescence as a direct consequence of increased reactive oxygen species is lipid peroxidation. Therefore the levels of MDA, a decomposition product of lipid peroxidation, were measured in detached wheat leaves that were exposed to the prepared novel derivatives and kinetin for four days in the dark as described in Example 8. MDA levels were measured using a thiobarbituric acid (TBA) method. In detail, 100 mg of fresh plant material was homogenized by high speed shaking in a ball mill (MM301, Retsch, Germany) with 1 mL of 80% methanol. The crude extract was centrifuged at 10,000×g for 5 min, and 100 μL aliquot of supernatant was vortexed with 100 μL of 0.5% (w/v) TBA containing 0.1% (w/v) trichloroacetic acid, and the resulting solution was then incubated for 30 min at 95° C. The samples were quickly cooled on ice and recentrifuged for 5 min at 1000×g. The absorbance of supernatant was measured at 532 nm with background subtraction at 600 nm and the amount of MDA-TBA complex was calculated from the coefficient of absorbance 155 mM^−1cm^−1.
as §1

[4] = tested on: Salmonella typhimurium histidien auxotrophs TA98 and TA100; test: Ames test; format: cell-based; settings: 2.5 to 5000 μg/plate; presence and absence of Aroclor-induced rat liver S9
Procedure: A number of tests related to the safety of have been carried out using conventionally accepted protocols and procedures. The results of these studies are summarized herein. Tests were carried out using DMSO as solvent and dose levels of compound 21, 24, 26, 27, 39, 41, 45, 48, 50, 52, 53, 54, 55, 56, 63, 64, 66, 67, 68, 69, 70, 71, 72, 74, 76, 124, 125, 126, 127, 128, 129, 130, 145, 146, 147, 149, 150, 151, 208, 216, 218 a 243 at 2.5, 5.0, 15, 50, 500, 1500, and 5000 μg/plate based upon standard protocol and procedures (Ames et al., Mutation Research, 31, 347-364 (1975); Maron et al., Mutation Research, 113, 173-215 (1983)).

`Oc1ccc(CNc2ncnc3c2nc(Br)n3C2CCCCO2)cc1O` (stereo not drawn) [Compound 39] was tested. Which “SENESCENT CELLS (%) HDF25” value [1] did it give?
Its value is 3%.

What about the “SENESCENT CELLS (%) HDF45” value [1] of the same compound?
Its value is 4%.

And the “SENESCENT CELLS (%) HDF80” value [1]?
The value was 20%.

And the “Activity (%) (s.d.), retention of chlorophyll” value (“Activity (%) (s.d.), retention” below) [2]?
Its value is 128 (±3) %.

And the “MDA (nmol/g FW)” value [3]?
The value was 11.6 (±1.2) nmol/g FW.

And the mutagenic response [4]?
The mutagenic response was “no positive mutagenic responses”.

How did the “MDA (nmol/g FW)” value [3] turn out when `Oc1ccc(Nc2ncnc3c2nc(Br)n3C2CCCCO2)cc1` (stereo not drawn) [Compound 44] was run?
The value was 10.7 (±0.8) nmol/g FW.

For `Oc1ccc(Nc2ncnc3c2nc(Cl)n3C2CCCCO2)cc1` (stereo not drawn) [Compound 16], which “MDA (nmol/g FW)” value [3] is on record?
Its value is 11.6 (±1.0) nmol/g FW.

`C/C(=C/CNc1ncnc2c1nc(N(C)C)n2C1CCCO1)CO` (stereo not drawn) [Compound 189] was tested. Which “MDA (nmol/g FW)” value [3] did it give?
The value was 10.8 (±0.9) nmol/g FW.

For `Oc1nc2c(NCc3ccco3)ncnc2n1C1CCCO1` (stereo not drawn) [Compound 221], which “MDA (nmol/g FW)” value [3] is on record?
Its value is 10.2 (±0.5) nmol/g FW.

For `Oc1ccc(CNc2ncnc3c2nc(Cl)n3C2CCCCO2)cc1O` (stereo not drawn) [Compound 10], which “Activity (%) (s.d.), retention” value [2] is on record?
Its value is 132 (±7) %.

What about the “MDA (nmol/g FW)” value [3] of the same compound?
Its value is 12.8 (±1.1) nmol/g FW.

With `Oc1ccc(CNc2ncnc3c2nc(Cl)n3C2CCCCO2)cc1` (stereo not drawn) [Compound 13] as the compound, how does the “MDA (nmol/g FW)” value [3] read?
The value was 11.9 (±1.3) nmol/g FW.

`Oc1ccc(CNc2ncnc3c2nc(O)n3C2CCCO2)cc1` (stereo not drawn) [Compound 224] was tested. Which “MDA (nmol/g FW)” value [3] did it give?
Its value is 9.3 (±0.8) nmol/g FW.

Which “Activity (%) (s.d.), retention” value [2] does the source give for `Clc1nc2c(NCc3ccco3)ncnc2n1C1CCCCO1` (stereo not drawn) [Compound 1, 8-Chloro-6-furfurylamino-9-(tetrahydropyran-2-yl)-9H-purine] here?
The value was 105 (±3) %.

What about the “MDA (nmol/g FW)” value [3] of the same compound?
The value was 12.8 (±1.0) nmol/g FW.

With `CC(C)=CCNc1ncnc2c1nc(NCCO)n2C1CCCO1` (stereo not drawn) [Compound 245] as the compound, how does the “MDA (nmol/g FW)” value [3] read?
Its value is 9.5 (±0.6) nmol/g FW.

`Brc1nc2c(NCc3ccco3)ncnc2n1C1CCCCO1` (stereo not drawn) [Compound 21, 8-Bromo-6-furfurylamino-9-(tetrahydropyran-2-yl)-9H-purine] was tested. Which “SENESCENT CELLS (%) HDF25” value [1] did it give?
The value was 3%.

And the “SENESCENT CELLS (%) HDF45” value [1]?
The value was 5%.

What about the “SENESCENT CELLS (%) HDF80” value [1] of the same compound?
Its value is 20%.

And the “Activity (%) (s.d.), retention” value [2]?
The value was 108 (±3) %.

What about the “MDA (nmol/g FW)” value [3] of the same compound?
Its value is 12.1 (±1.2) nmol/g FW.

And the mutagenic response [4]?
The mutagenic response was “no positive mutagenic responses”.

How did the “MDA (nmol/g FW)” value [3] turn out when `NCCNc1nc2c(NCc3ccco3)ncnc2n1C1CCCO1` (stereo not drawn) [Compound 233] was run?
Its value is 9.8 (±0.7) nmol/g FW.

`NCCCOc1nc2c(NCc3ccco3)ncnc2n1C1CCCO1` (stereo not drawn) [Compound 241] was tested. Which “MDA (nmol/g FW)” value [3] did it give?
The value was 9.6 (±0.8) nmol/g FW.

For `C/C(=C/CNc1ncnc2c1nc(Br)n2C1CCCCO1)CO` (stereo not drawn) [Compound 25], which “MDA (nmol/g FW)” value [3] is on record?
The value was 11.7 (±1.1) nmol/g FW.

With `COc1cc(CNc2ncnc3c2nc(Cl)n3C2CCCCO2)cc(OC)c1O` (stereo not drawn) [Compound 14] as the compound, how does the “MDA (nmol/g FW)” value [3] read?
The value was 12.2 (±1.4) nmol/g FW.

For `NCCCNc1nc2c(NCc3ccco3)ncnc2n1C1CCCO1` (stereo not drawn) [Compound 238], which “MDA (nmol/g FW)” value [3] is on record?
The value was 9.4 (±0.7) nmol/g FW.

Which “MDA (nmol/g FW)” value [3] does the source give for `Nc1nc2c(NCc3ccco3)ncnc2n1C1CCCO1` (stereo not drawn) [Compound 197] here?
Its value is 9.2 (±0.6) nmol/g FW.

Which “MDA (nmol/g FW)” value [3] does the source give for `Nc1nc2c(NCc3ccc(O)cc3)ncnc2n1C1CCCO1` (stereo not drawn) [Compound 201] here?
The value was 8.7 (±0.7) nmol/g FW.
